The record followed here is patent publication US6395723B2, “Method of providing coginition enhancement with 5α-pregnan-3β-ol-20-one sulfate” (Wyeth, priority 1997, dated 2002).

Assay type in all cases: cell-based
Experiment [1] deals with potassium channel currents. Put plainly: Whole cell recording of potassium currents from cultured hippocampal neurons. The note with it: 2 μM, p=0.0006. The protocol: (§1) The neuroprotective and cognition enhancing effects of the compounds of this invention were evaluated in an in vitro standard pharmacological test procedure which measured the effects of 5α-pregnan-3β-ol-20-one 3-sulfate ester sodium salt, as a representative compound of this invention, on calcium and potassium channel currents. Briefly, the following procedure was used.
(§2) Whole cell recording techniques were used to record calcium and potassium currents from cultured hippocampal neurons. The compounds to be evaluated were made fresh each day in a 400 μM ethanol stock solution. The test compounds were diluted in saline to obtain a final concentration of 2 μM. The amplitude of calcium or potassium currents in control, test compound, and washout solutions was measured from at least 10 current traces for each condition. To compensate for rundown of the calcium current with time, control and washout currents were averaged. The current amplitude with drug was divided by the averaged control and washout current to determine the percent change. The means, standard deviations and errors for each test compound were calculated and significance from control was determined using the paired T-Test.

For a further experiment, the system named is calcium channel currents. Put plainly: Whole cell recording of calcium currents from cultured hippocampal neurons. The settings on record: 2 μM, p=0.044. Here is the method: as §1, §2
The target of a further experiment is T1, progesterone receptors (Homo sapiens, UniProt P06401).
T1 construct: endogenous in cells; host or cells: T47D human breast cancer cells
T1 sequence (P06401 1-933): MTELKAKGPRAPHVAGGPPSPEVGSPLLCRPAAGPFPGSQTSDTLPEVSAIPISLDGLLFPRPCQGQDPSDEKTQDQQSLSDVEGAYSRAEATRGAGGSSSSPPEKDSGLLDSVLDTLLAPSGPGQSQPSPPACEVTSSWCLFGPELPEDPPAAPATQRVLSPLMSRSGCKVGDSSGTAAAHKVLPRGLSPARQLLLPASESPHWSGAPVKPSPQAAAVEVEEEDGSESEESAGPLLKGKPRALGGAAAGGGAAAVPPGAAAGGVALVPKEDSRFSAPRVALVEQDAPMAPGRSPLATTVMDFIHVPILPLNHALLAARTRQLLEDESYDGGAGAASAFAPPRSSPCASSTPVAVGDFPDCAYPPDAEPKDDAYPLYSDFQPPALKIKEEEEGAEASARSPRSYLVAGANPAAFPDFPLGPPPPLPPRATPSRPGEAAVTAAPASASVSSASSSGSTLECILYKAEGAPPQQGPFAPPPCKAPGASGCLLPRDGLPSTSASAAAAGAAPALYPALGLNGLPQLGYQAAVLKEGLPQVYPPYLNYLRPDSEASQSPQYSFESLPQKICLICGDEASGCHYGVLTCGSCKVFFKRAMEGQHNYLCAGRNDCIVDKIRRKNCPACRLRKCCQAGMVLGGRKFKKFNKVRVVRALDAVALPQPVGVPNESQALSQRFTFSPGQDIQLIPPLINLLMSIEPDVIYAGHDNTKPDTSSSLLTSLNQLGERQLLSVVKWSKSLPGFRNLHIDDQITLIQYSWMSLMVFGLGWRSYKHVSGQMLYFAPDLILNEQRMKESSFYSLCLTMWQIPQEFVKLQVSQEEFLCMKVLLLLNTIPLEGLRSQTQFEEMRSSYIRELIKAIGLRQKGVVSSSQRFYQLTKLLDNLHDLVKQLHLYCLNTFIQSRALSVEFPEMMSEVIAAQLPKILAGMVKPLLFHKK
Put plainly: Stimulation of alkaline phosphatase enzyme activity in T47D cells (progestational activity). The note with it: for concentrations required for activity (alkaline phosphatase induction): T47D cells, reference progestins. The source says:
In this test procedure, the progestational activity of a compound is quantified based on its stimulation of alkaline phosphatase enzyme activity in T47D cells, a human breast cancer cell line which expresses high levels of progesterone receptors. This is a well established test procedure in which both the progestin receptors and the response stimulated by activated progestin receptors are endogenous to the cells. Cells are pre-conditioned in low serum medium for one day and then treated with test compounds.

Where a name gives a salt, the structure may show the parent alone.

On to `CC(O)C1CCC2C3CCC4CC(O)CCC4(C)C3CCC12C` (stereo not drawn) [5α-Pregnan-3β,20β-diol], for which the “increase of potassium channel currents versus control” value in experiment [1] was found to be 21.76±2.40%. Take `CC(=O)[C@H]1CC[C@H]2[C@@H]3CC[C@H]4C[C@@H](OS(=O)(=O)O)CC[C@]4(C)[C@H]3CC[C@]12C` [5α-pregnan-3β-ol-20-one 3-sulfate ester sodium salt]: the “decrease of calcium channel currents versus control” value with calcium channel currents is listed as 4.64±1.64%. For the same compound, on progesterone receptors, half-maximal inhibition (IC50) was put at 5 µM. On to `CC(=O)O[C@]1(C(C)=O)CC[C@H]2[C@@H]3C[C@H](C)C4=CC(=O)CC[C@]4(C)[C@H]3CC[C@@]21C` [medroxyprogesterone acetate], for which the “concentrations required for activity (alkaline phosphatase induction)” value on progesterone receptors is reported as “low nanomolar”. On the same count and under the same terms, then `CC(=O)[C@H]1CC[C@H]2[C@@H]3CCC4=CC(=O)CC[C@]4(C)[C@H]3CC[C@]12C` [progesterone], with “low nanomolar”.

As a reminder, the IC50 is the concentration at which inhibition is half-maximal. High values mean weaker potency, low ones greater potency.
